Test results taken from PubChem BioAssay (NCI).
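Each compound was tested at five concentrations against cells in 96-well plates for 48 hours. TGI is the concentration that stops growth completely.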

Experiments:
Experiment in all cases: growth of human tumour cells (NCI), 48 h
HT29 colon = tested on: HT29 colon
CCRF-CEM leukemia = tested on: CCRF-CEM leukemia
EKVX NSCLC = tested on: EKVX NSCLC
MDA-MB-435 = tested on: MDA-MB-435
BT-549 breast = tested on: BT-549 breast
HS 578T breast = tested on: HS 578T breast
OVCAR-5 ovarian = tested on: OVCAR-5 ovarian
786-0 renal = tested on: 786-0 renal
PC-3 prostate = tested on: PC-3 prostate
RPMI-8226 leukemia = tested on: RPMI-8226 leukemia
CAKI-1 renal = tested on: CAKI-1 renal
NCI-H460 lung = tested on: NCI-H460 lung
RXF 393 renal = tested on: RXF 393 renal

SMILES | TGI (HT29 colon) [µM] | TGI (CCRF-CEM leukemia) [µM] | TGI (EKVX NSCLC) [µM] | TGI (MDA-MB-435) [µM] | TGI (BT-549 breast) [µM] | TGI (HS 578T breast) [µM] | TGI (OVCAR-5 ovarian) [µM] | TGI (786-0 renal) [µM] | TGI (PC-3 prostate) [µM] | TGI (RPMI-8226 leukemia) [µM] | TGI (CAKI-1 renal) [µM] | TGI (NCI-H460 lung) [µM] | TGI (RXF 393 renal) [µM]
C[C@H]1CC[C@@]2(OC1)O[C@H]1C[C@H]3[C@@H]4CC[C@@H]5C[C@@H](OC6OC(CO)C(O)C(O)C6OC6OC(CO)C(O)C(O)C6O)CC[C@]5(C)[C@H]4CC[C@]3(C)[C@H]1[C@@H]2C (stereo partly drawn) | 3.68 | 3.73 | 3.79 | 3.88 | 4.1 | 4.47 | 3.45 | 3.69 | 3.84 | 3.97 | 3.44 | – | –
Cn1c(CNc2ccc(-c3n[nH]c(=S)n3C)cc2)n[nH]c1=S | > 100 | > 100 | > 100 | > 100 | > 100 | – | > 100 | > 100 | > 100 | – | > 100 | > 100 | –
CCOC(=O)c1c(NC(=O)c2ccccc2)c(C#N)c2n1CCCCC2 | > 100 | > 100 | > 100 | > 100 | – | > 100 | > 100 | > 100 | > 100 | > 100 | > 100 | > 100 | > 100
CC(C)(CN1CCCCC1)C(=O)/C=C/c1ccc(Br)cc1 | 12.6 | 9.34 | 9.13 | – | – | – | 11.8 | 4.72 | – | > 27.1 | 3.71 | > 20.4 | 4.48
COC(=O)[C@@]12OC[C@]34C([C@@H](O)C1O)[C@@]1(C)CC(=O)C(OC(=O)CC(C)C(F)(F)F)=C(C)C1C[C@H]3OC(=O)[C@H](O)[C@H]42 (stereo partly drawn) | > 62.5 | > 62.5 | > 62.5 | – | – | – | > 62.5 | 38.5 | – | 5.56 | > 62.5 | > 62.5 | 23.6
CN(NC1=NCCO1)c1ccc2ccccc2c1 | > 100 | 49.5 | > 100 | > 100 | – | > 100 | > 100 | > 100 | > 100 | > 100 | > 100 | > 100 | > 100
COC(=O)c1c(C)cccc1/C=C1\Cc2ccc(C)c(C)c2C1=O | > 100 | – | > 100 | – | > 100 | > 100 | > 100 | > 100 | > 100 | > 100 | > 100 | > 100 | > 100
O=c1[nH]c(N/N=C\C(O)C(O)C(O)C(O)CO)nc2ccccc12 (stereo not drawn) | > 100 | > 100 | > 100 | > 100 | > 100 | > 100 | > 100 | > 100 | > 100 | > 100 | > 100 | > 100 | –
O=C(c1ccc(Cl)cc1)N(C(=O)N1CCCCC1)c1ccccc1 | > 100 | > 100 | > 100 | > 100 | > 100 | > 100 | > 100 | > 100 | > 100 | > 100 | > 100 | – | –
CN1CCOC(C(NC(=O)c2ccccc2)c2ccccc2)C1=O (stereo not drawn) | > 100 | > 100 | > 100 | – | – | – | > 100 | > 100 | – | > 100 | > 100 | > 100 | > 100
COC(=O)C(C(=O)C(=O)Nc1c(Cl)cc([N+](=O)[O-])cc1Cl)c1csc(-n2nc(C3=CCCCC3)cc2-c2ccccc2)n1 (stereo not drawn) | > 100 | > 100 | 94.7 | – | – | – | > 100 | > 100 | – | > 100 | > 100 | > 100 | > 100
CCOC(=O)C1S(=O)(=O)OCCOS1(=O)=O | > 100 | > 100 | > 100 | – | – | – | – | > 100 | – | > 100 | > 100 | – | –
O=C1CC(c2cccc(Cl)c2)Nc2ccc(N3CCCC3)cc21 (stereo not drawn) | 0.331 | – | > 100 | – | – | – | – | > 100 | > 100 | 0.0171 | > 100 | – | 0.0845
Cc1cc(C)c(-c2no/c(=N\S(=O)(=O)c3ccc(Cl)cc3)o2)c(C)c1 | > 100 | > 100 | > 100 | > 100 | – | > 100 | > 100 | > 100 | > 100 | > 100 | > 100 | > 100 | > 100
O=C1c2ccccc2N2OC3(N4CCOCC4)CCCC3C12c1ccccc1 (stereo not drawn) | > 100 | > 100 | > 100 | – | – | – | – | > 100 | – | > 100 | – | – | > 100
COC(CN(C)C(=S)Nc1cccc2ccccc12)OC | > 10 | > 10 | > 10 | > 10 | – | > 10 | – | > 10 | > 10 | > 10 | > 10 | > 10 | > 10
COc1cc(C2c3cc4c(cc3OC(NN)C2C)OCO4)cc(OC)c1O (stereo not drawn) | – | – | – | – | 51.3 | – | > 100 | > 100 | > 100 | 17.8 | > 100 | – | > 100
O=c1c(-c2ccccc2)nnc2n(Cc3ccccc3)c3ccccc3n12 | > 100 | > 100 | > 100 | > 100 | > 100 | > 100 | > 100 | > 100 | – | – | > 100 | > 100 | > 100
CCOC(=O)c1cn(CC)c(=O)n2c1nc1ccccc12 | > 100 | > 100 | > 100 | > 100 | > 100 | – | > 100 | > 100 | > 100 | 75.1 | > 100 | > 100 | > 100
COC(=O)c1cc(S(=O)(=O)NC2=NCC(C)NN2)c(S)cc1Cl (stereo not drawn) | > 100 | > 100 | > 100 | > 100 | > 100 | – | > 100 | > 100 | > 100 | > 100 | > 100 | > 100 | –
